Measured values from patent publication US7419790B2, “Sodium-independent transporter carrying acidic amino acid and its gene” (J-Pharma Co., Ltd, priority 2002, dated 2008).

T1: AGT1-4F2hc fusion protein (Mus musculus, UniProt P10852+Q91WN3)
T1 sequence (Q91WN3+P10852 with tags, fused parts or gaps): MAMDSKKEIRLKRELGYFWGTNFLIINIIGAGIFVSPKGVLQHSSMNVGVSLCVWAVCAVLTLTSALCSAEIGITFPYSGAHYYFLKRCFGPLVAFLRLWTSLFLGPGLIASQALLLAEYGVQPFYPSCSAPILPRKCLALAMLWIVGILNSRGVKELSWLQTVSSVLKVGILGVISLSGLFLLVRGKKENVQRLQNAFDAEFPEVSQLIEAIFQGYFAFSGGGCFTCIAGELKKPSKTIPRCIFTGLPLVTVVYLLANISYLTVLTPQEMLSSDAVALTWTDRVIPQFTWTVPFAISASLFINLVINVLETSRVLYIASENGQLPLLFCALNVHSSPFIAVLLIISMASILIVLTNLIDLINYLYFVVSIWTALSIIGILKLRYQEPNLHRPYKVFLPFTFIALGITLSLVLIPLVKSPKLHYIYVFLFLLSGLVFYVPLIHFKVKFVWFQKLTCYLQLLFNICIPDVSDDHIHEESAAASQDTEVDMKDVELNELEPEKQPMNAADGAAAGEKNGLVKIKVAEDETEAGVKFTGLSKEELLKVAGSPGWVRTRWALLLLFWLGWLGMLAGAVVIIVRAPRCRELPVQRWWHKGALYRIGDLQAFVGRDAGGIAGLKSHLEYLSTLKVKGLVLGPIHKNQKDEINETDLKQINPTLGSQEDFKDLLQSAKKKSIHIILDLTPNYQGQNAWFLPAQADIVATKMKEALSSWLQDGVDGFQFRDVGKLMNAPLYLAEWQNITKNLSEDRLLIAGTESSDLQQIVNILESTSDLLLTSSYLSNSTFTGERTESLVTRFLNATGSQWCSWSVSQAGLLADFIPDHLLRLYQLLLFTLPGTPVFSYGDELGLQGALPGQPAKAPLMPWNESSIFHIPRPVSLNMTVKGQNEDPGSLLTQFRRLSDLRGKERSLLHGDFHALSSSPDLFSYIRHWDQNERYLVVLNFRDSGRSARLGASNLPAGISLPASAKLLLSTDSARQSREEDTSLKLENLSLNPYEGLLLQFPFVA

T2: AGT1-rBAT fusion protein (Mus musculus, UniProt Q91WN3+Q91WV7)
T2 construct: expressed in transfected cells; host or cells: oocyte injected with AGT1-rBAT fusion protein gene cRNA
T2 sequence (Q91WN3+Q91WV7 with tags, fused parts or gaps): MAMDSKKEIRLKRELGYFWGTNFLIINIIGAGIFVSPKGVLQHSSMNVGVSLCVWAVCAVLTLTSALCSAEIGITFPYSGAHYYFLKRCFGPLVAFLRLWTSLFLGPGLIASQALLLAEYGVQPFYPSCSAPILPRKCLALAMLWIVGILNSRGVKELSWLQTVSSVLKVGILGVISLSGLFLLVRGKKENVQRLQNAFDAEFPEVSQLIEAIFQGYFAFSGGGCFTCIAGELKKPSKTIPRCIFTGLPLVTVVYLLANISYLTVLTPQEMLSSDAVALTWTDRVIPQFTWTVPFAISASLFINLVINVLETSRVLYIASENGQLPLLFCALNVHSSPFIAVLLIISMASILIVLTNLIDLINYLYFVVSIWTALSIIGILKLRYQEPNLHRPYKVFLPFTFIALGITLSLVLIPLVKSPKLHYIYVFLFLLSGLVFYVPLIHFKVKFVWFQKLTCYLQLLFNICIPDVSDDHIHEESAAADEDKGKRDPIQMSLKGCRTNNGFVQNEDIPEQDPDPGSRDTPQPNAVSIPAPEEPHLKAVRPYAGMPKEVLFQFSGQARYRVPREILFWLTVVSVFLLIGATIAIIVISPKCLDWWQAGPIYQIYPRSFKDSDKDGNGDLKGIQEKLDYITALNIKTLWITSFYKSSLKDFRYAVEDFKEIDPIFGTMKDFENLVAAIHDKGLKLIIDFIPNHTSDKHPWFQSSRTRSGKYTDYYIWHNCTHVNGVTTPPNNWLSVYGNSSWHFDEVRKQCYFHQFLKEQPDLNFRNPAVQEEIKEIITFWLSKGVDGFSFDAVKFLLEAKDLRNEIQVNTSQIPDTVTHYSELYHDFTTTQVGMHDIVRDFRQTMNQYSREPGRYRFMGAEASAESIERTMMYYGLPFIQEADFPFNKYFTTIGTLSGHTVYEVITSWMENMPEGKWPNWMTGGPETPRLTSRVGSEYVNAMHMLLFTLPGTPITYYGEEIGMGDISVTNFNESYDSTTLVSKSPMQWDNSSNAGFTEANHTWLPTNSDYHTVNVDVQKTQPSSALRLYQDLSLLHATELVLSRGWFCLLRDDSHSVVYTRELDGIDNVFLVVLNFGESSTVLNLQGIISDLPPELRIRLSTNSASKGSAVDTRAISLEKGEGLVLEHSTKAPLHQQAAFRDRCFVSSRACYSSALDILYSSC


What was measured:
[1] = target: T1, AGT1-4F2hc fusion protein; assay: Inhibition of 14C-aspartic acid uptake by added amino acids and analogues, oocytes expressing AGT1-4F2hc; format: cell-based; settings: 2 mM non-labeled compound, 14C-aspartic acid 20 μM, sodium-free uptake solution
Procedure: However, a sodium-free uptake solution was used and the uptake ^14C-aspartic acid (20 μM) was measured in the presence and absence of 2 mM of various compounds (non-labeled).

[2] = target: T1, AGT1-4F2hc fusion protein; assay: Uptake of radio-labeled amino acids by oocytes expressing AGT1-4F2hc; format: cell-based; settings: oocyte injected with AGT1-4F2hc cRNA, 14C compound as substrate
Description: With regard to a substrate, various compounds which were labeled with radioactivity were used instead of ^14C-aspartic acid.

AGT1-rBAT fusion protein = target: T2, AGT1-rBAT fusion protein; assay: Uptake of 14C-aspartic acid by oocytes expressing AGT1-rBAT; format: cell-based; settings: oocyte injected with AGT1-rBAT cRNA; 14C-aspartic acid 20 μM, 30 minutes, compared with water-injected control
[3] = target: T1, AGT1-4F2hc fusion protein; assay: Michaelis-Menten kinetic analysis of substrate uptake by oocytes expressing AGT1-4F2hc; settings: AGT1-4F2hc in oocytes; ratio to Vmax value of L-aspartic acid; mean value ± standard error
Procedure: (§1) The oocyte were allowed to stand for 30 minutes in a sodium-free uptake solution (100 mM choline chloride, 2 mM potassium chloride, 1.8 mM calcium chloride, 1 mM magnesium chloride and 5 mM HEPES; pH 7.4) containing ^14 C-aspartic acid (20 μM) as a substrate and an uptake rate of the substrate was measured by the count of radioactivity incorporated into the cells.
(§2) The Michaelis-Menten kinetic analysis was conducted by investigating the change in the ratio of uptake of aspartic acid by the difference in the substrate aspartic acid concentration.
(§3) The aspartic acid uptake experiment was carried according to the method mentioned in the above Example 2(2) using the oocyte into which a cRNA of a gene of a fusion protein of AGT1 with 4F2hc or with rBAT (AGT1-4F2hc or AGT1-rBAT) was injected.
(§4) The Michaelis-Menten kinetic analysis was similarly carried out in a fusion protein of AGT1 with 4F2hc (AGT1-4F2hc) in glutamic acid and Km value and Vmax value were calculated.
N[C@@H](CCC(=O)O)C(=O)O = assay: cells, lysate or membranes; settings: other: substrate transport by AGT1-4F2hc in Xenopus oocytes, sodium-free uptake solution; mean value ± standard error; pH 7.4
Procedure: as §1, §2, §3, §4

[4] = substrate: N[C@@H](CC(=O)O)C(=O)O; assay: cells, lysate or membranes; settings: other: AGT1-rBAT in Xenopus oocytes; pH 7.4

Molecule | effect on uptake of 14C-aspartic acid mediated by AGT1-4F2hc (cis-inhibition) [1] | further results
O=C(O)[C@@H]1CN[C@@H](C(=O)O)C1 (relative stereo) [L-trans-pyrrolidine-2,4-dicarboxylate] | no inhibition effect | –
NC1(C(=O)O)CC2CCC1C2 (stereo not drawn) [2-amino-2-norbornane-carboxylic acid] | did no affect | –
N[C@H](CC(=O)O)C(=O)O [D-aspartic acid] | did no affect | –
N[C@H](CCC(=O)O)C(=O)O [D-glutamic acid] | did no affect | –
N[C@@H](CC(=O)O)C(=O)O [L-Aspartic acid] | significant cis-inhibiting effect | uptake of radio-labeled substrate into the oocyte ([2]; listed as L-aspartic acid): substantial uptake; uptake of radio-labeled substrate into the oocyte ([2]; listed as aspartic acid): higher uptake; uptake of aspartic acid into the oocyte (AGT1-rBAT fusion protein): higher uptake; Vmax [3]: (1.00)
N[C@@H](CCC(=O)O)C(=O)O [L-Glutamic acid] | significant cis-inhibiting effect | uptake of radio-labeled substrate into the oocyte [2]: substantial uptake; Vmax [3]: 0.63 ± 0.10
N[C@@H](CS(=O)(=O)O)C(=O)O [L-cysteate] | strongly inhibited | –
N[C@@H](CS)C(=O)O.O=S(=O)(O)O [L-cysteine sulfate] | strongly inhibited | –
N[C@@H](CCS(=O)(=O)O)C(=O)O [L-homocysteate] | no inhibition effect | –
N[C@@H](COS(=O)(=O)O)C(=O)O [L-serine-O-sulfate] | strongly inhibited | –
N[C@@H](CCCC(=O)O)C(=O)O [L-α-aminoadipate] | no inhibition effect | –
N[C@@H](CS)C(=O)O [cysteine] | significant cis-inhibiting effect | –
N[C@@H](CSSC[C@H](N)C(=O)O)C(=O)O [cystine] | did no affect | –
CC(C)[C@H]1CN[C@H](C(=O)O)[C@H]1CC(=O)O [dihydrokainate] | no inhibition effect | –
NC(C(=O)O)C(O)C(=O)O (stereo not drawn) [threo-β-hydroxyaspartate] | strongly inhibited | –
AGT1-4F2hc fusion protein (Mus musculus) | – | Km (N[C@@H](CCC(=O)O)C(=O)O): 21.8 ± 6.5 µM
γ-aminoisobutyric acid | did no affect | –
AGT1-rBAT fusion protein (Mus musculus) (protein) MAMDSKKEIRLKRELGYFWGTNFLIINIIGAGIFVSPKGVLQHSSMNVGVSLCVWAVCAVLTLTSALCSAEIGITFPYSGAHYYFLKRCFGPLVAFLRLWTSLFLGPGLIASQALLLAEYGVQPFYPSCSAPILPRKCLALAMLWIVGILNSRGVKELSWLQTVSSVLKVGILGVISLSGLFLLVRGKKENVQRLQNAFDAEFPEVSQLIEAIFQGYFAFSGGGCFTCIAGELKKPSKTIPRCIFTGLPLVTVVYLLANISYLTVLTPQEMLSSDAVALTWTDRVIPQFTWTVPFAISASLFINLVINVLETSRVLYIASENGQLPLLFCALNVHSSPFIAVLLIISMASILIVLTNLIDLINYLYFVVSIWTALSIIGILKLRYQEPNLHRPYKVFLPFTFIALGITLSLVLIPLVKSPKLHYIYVFLFLLSGLVFYVPLIHFKVKFVWFQKLTCYLQLLFNICIPDVSDDHIHEESAAADEDKGKRDPIQMSLKGCRTNNGFVQNEDIPEQDPDPGSRDTPQPNAVSIPAPEEPHLKAVRPYAGMPKEVLFQFSGQARYRVPREILFWLTVVSVFLLIGATIAIIVISPKCLDWWQAGPIYQIYPRSFKDSDKDGNGDLKGIQEKLDYITALNIKTLWITSFYKSSLKDFRYAVEDFKEIDPIFGTMKDFENLVAAIHDKGLKLIIDFIPNHTSDKHPWFQSSRTRSGKYTDYYIWHNCTHVNGVTTPPNNWLSVYGNSSWHFDEVRKQCYFHQFLKEQPDLNFRNPAVQEEIKEIITFWLSKGVDGFSFDAVKFLLEAKDLRNEIQVNTSQIPDTVTHYSELYHDFTTTQVGMHDIVRDFRQTMNQYSREPGRYRFMGAEASAESIERTMMYYGLPFIQEADFPFNKYFTTIGTLSGHTVYEVITSWMENMPEGKWPNWMTGGPETPRLTSRVGSEYVNAMHMLLFTLPGTPITYYGEEIGMGDISVTNFNESYDSTTLVSKSPMQWDNSSNAGFTEANHTWLPTNSDYHTVNVDVQKTQPSSALRLYQDLSLLHATELVLSRGWFCLLRDDSHSVVYTRELDGIDNVFLVVLNFGESSTVLNLQGIISDLPPELRIRLSTNSASKGSAVDTRAISLEKGEGLVLEHSTKAPLHQQAAFRDRCFVSSRACYSSALDILYSSC | – | Km [4]: 20.1 ± 6.1 µM
